Assay results from patent publication US20250090681A1, “NEODEGRADER CONJUGATES” (Orum Therapeutics, Inc., priority 2021, published 2025).

Target: T1, GSPT1 (Homo sapiens, UniProt P15170+Q96SW2)
T1 construct: Whole cell lysates were prepared from MV4-11 CD33-positive AML cells; endogenous in cells; host or cells: MV4-11 (CD33-positive AML cells)
Test: GSPT1 degradation by western blot in MV4-11 cells
Format: cell-based
Settings: FIG. 8
From the text: GSPT1 was probed by commercially available rabbit-anti-GSPT1 antibody (Abcam) followed by anti-rabbit HRP conjugated secondary antibody (Cell Signaling Technology) and detected by chemiluminescent substrate (ThermoFisher). PVDF membrane was then stripped and re-probed with beta-Actin-HRP conjugated antibody (Cell Signaling Technology).

T1 sequence (P15170 whole entry): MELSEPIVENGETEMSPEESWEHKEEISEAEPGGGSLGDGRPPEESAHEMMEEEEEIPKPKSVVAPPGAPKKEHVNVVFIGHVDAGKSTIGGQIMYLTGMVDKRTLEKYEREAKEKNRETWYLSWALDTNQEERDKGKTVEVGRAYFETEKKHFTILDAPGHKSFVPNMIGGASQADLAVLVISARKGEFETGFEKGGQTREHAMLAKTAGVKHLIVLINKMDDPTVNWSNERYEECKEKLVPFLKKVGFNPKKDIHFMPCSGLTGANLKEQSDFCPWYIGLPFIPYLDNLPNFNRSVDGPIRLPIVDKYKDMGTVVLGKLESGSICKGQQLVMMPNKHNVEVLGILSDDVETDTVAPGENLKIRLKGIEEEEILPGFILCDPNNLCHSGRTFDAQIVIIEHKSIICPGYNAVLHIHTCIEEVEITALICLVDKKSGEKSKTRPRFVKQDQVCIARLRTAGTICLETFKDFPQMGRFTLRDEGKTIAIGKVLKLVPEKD
T1 sequence (Q96SW2 whole entry): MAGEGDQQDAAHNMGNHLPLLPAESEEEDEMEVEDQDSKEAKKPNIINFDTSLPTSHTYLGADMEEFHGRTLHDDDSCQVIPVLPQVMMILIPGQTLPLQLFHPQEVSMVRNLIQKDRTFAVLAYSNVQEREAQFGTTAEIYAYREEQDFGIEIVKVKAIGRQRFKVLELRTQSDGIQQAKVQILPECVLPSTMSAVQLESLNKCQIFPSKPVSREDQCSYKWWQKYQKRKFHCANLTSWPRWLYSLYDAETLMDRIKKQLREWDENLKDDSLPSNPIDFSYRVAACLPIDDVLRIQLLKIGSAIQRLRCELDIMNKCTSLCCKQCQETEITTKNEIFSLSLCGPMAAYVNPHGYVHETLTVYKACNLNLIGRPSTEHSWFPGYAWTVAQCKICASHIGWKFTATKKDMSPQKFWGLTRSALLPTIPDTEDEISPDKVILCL
T1 sequence (Q16531 whole entry partner): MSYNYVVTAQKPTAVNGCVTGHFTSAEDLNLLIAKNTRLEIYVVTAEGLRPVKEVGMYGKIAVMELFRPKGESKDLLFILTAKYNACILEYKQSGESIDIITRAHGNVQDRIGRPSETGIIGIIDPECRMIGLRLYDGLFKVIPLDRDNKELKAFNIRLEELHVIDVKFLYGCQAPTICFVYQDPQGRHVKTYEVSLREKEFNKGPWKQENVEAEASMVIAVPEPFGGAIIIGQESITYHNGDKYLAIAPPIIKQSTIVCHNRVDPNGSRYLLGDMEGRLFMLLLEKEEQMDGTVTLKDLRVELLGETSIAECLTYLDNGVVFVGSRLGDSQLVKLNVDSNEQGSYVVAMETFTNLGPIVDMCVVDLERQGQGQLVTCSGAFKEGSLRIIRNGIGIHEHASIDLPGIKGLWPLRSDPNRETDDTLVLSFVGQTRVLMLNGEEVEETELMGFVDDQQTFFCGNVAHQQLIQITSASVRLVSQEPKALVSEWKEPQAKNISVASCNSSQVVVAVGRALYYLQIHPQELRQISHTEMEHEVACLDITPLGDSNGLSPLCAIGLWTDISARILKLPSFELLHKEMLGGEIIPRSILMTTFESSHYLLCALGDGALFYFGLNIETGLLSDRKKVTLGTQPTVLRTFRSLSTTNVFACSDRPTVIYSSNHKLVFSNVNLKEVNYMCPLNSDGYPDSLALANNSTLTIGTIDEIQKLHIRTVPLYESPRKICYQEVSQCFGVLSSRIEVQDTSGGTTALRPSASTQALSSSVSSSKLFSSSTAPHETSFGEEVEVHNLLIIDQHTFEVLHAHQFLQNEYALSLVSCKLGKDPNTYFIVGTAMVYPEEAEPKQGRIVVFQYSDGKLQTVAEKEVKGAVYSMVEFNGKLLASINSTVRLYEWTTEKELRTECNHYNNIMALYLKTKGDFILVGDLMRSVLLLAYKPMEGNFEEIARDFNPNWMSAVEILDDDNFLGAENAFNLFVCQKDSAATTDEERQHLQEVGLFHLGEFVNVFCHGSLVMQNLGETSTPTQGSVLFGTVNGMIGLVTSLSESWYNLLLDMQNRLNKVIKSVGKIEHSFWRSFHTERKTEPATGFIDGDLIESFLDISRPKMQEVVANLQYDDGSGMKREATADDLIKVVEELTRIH

`CNCCOCCc1ccc(NC(=O)NCc2ccc3c(c2)CN(C2CCC(=O)NC2=O)C3=O)cc1Cl` (centres unmarked) [neoDegrader P1, 1-(3-chloro-4-[2-[2-(methylamino)ethoxy]ethyl]phenyl)-3-[[2-(2,6-dioxopiperidin-3-yl)-1-oxo-3H-isoindol-5-yl]methyl]urea] was tested, and the “durability of GSPT1 depletion” value (MV4-11 cells, 6, 12 and 18 hours) was “transient depletion” and the “decreases in GSPT1 levels” value (MV4-11 cells, as short as 6 hours post-dosing) was “dose-dependent decreases”.
